Here are results for five molecules from US8546320B2, “Hsp9O-targeted anti-cancer chimeric peptide” (Kyoto University, priority 2008, dated 2013).

Where a SMILES comes first, the peptide text is derived from it.

One assay relates to Caki-1. Type of assay: cell-based, human. The settings on record: Caki-1; for Anti-cancer activity (% relative to wild-type peptide) / Decrease in cell survival rate (% relative to wild-type peptide): wild-type peptide = 100%. On the procedure: A total of 3×10^3 cells were inoculated per well on a 96 well plate and cultured in a medium containing 10% FBS for 24 hours, and incubated with 100 μl of a peptide having a gradual increase in concentration at 37° C. for 48 to 72 hours. The survival rate of the cells was measured by using WST-8 solution (Cell Count Reagent SF; Nacalai Tesque, Inc.).
Respective variant peptides were subjected to cell viability assay. Specifically, Caki-1 (American Type Culture Collection (Manassas, Va.) was inoculated in a total amount of 3×10^3 cells per well on a 96 well plate (Nunc™); the cells were cultured in a medium (DMEM (Tesque, Inc.) containing 10% FBS (fetal bovine serum; Biowest)) for 24 hours and incubated with 100 μl of a peptide having a gradual increase in concentration at 37° C. for 48 to 72 hours. The cell survival rate was measured by using WST-8 solution (Cell Count Reagent SF; Nacalai Tesque, Inc.) and compared with that of the wild-type Antp-TPR peptide.
Respective variant peptides were subjected to cell viability assay. Specifically, Caki-1 (American Type Culture Collection (Manassas, Va.) was inoculated in a total amount of 3×10^3 cells per well on a 96 well plate (Nunc™); the cells were cultured in a medium containing 10% FBS for 24 hours and incubated with 100 μl of a peptide having a gradual increase in concentration at 37° C. for 48 to 72 hours. The cell survival rate was measured by using WST-8 solution (Cell Count Reagent SF; Nacalai Tesque, Inc.) and compared with that of the wild-type Antp-TPR peptide.

A further assay has as its system cancer cells. The assay is described as follows: Cell viability assay, summary statements on cancer cells. Type of assay: cell-based. The settings on record: single mutation in TPR or Antp region of Antp-TPR.

Turning to `CC[C@H](C)[C@H](NC(=O)[C@H](CCCNC(=N)N)NC(=O)[C@H](C)NC(=O)[C@H](Cc1ccc(O)cc1)NC(=O)[C@H](C)NC(=O)[C@H](CCCCN)NC(=O)[C@H](CCCCN)NC(=O)[C@H](CCCNC(=N)N)NC(=O)[C@H](Cc1c[nH]c2ccccc12)NC(=O)[C@H](CCCCN)NC(=O)[C@H](CCSC)NC(=O)[C@H](CCCNC(=N)N)NC(=O)[C@H](CCCNC(=N)N)NC(=O)[C@H](CC(N)=O)NC(=O)[C@H](CCC(N)=O)NC(=O)[C@H](Cc1ccccc1)NC(=O)[C@H](Cc1c[nH]c2ccccc12)NC(=O)[C@@H](NC(=O)[C@H](CCCCN)NC(=O)[C@@H](NC(=O)[C@H](CCC(N)=O)NC(=O)[C@@H](N)CCCNC(=N)N)[C@@H](C)CC)[C@@H](C)CC)C(=O)NCC(=O)N[C@@H](CC(N)=O)C(=O)N[C@@H](CO)C(=O)N[C@@H](Cc1ccc(O)cc1)C(=O)N[C@@H](Cc1ccccc1)C(=O)N[C@@H](CCCCN)C(=O)O` [Antp K15R-TPR] (H-RQIKIWFQNRRMKWRKKAYARIGNSYFK-OH; N-terminus and C-terminus assumed), in the assay with Caki-1, the “killing effect compared with the wild-type peptide” value was “stronger than that of the wild-type peptide”, the “Anti-cancer activity (% relative to wild-type peptide)” value came to 110.21% and the “Decrease in cell survival rate (% relative to wild-type peptide)” value (“Decrease … (% relative to wild-type peptide)” for short) was 687.99%. Further, the “effect compared with the wild-type protein (summary of mutations)” value with cancer cells is “effect similar to that of the wild-type protein”.

As to `CC[C@H](C)[C@H](NC(=O)[C@H](CCCNC(=N)N)NC(=O)[C@H](C)NC(=O)[C@H](Cc1ccc(O)cc1)NC(=O)[C@H](C)NC(=O)[C@H](CCCCN)NC(=O)[C@H](CCCCN)NC(=O)[C@H](CCCCN)NC(=O)[C@H](Cc1c[nH]c2ccccc12)NC(=O)[C@H](CCCCN)NC(=O)[C@H](CS)NC(=O)[C@H](CCCNC(=N)N)NC(=O)[C@H](CCCNC(=N)N)NC(=O)[C@H](CC(N)=O)NC(=O)[C@H](CCC(N)=O)NC(=O)[C@H](Cc1ccccc1)NC(=O)[C@H](Cc1c[nH]c2ccccc12)NC(=O)[C@@H](NC(=O)[C@H](CCCCN)NC(=O)[C@@H](NC(=O)[C@H](CCC(N)=O)NC(=O)[C@@H](N)CCCNC(=N)N)[C@@H](C)CC)[C@@H](C)CC)C(=O)NCC(=O)N[C@@H](CC(N)=O)C(=O)N[C@@H](CO)C(=O)N[C@@H](Cc1ccc(O)cc1)C(=O)N[C@@H](Cc1ccccc1)C(=O)N[C@@H](CCCCN)C(=O)O` [Antp M12C-TPR] (H-RQIKIWFQNRRCKWKKKAYARIGNSYFK-OH; N-terminus and C-terminus assumed), in the assay with Caki-1, the “killing effect compared with the wild-type peptide” value is on record as “stronger than that of the wild-type peptide”, the “Anti-cancer activity (% relative to wild-type peptide)” value is 102.68% and the “Decrease … (% relative to wild-type peptide)” value worked out at 128.91%. The “effect compared with the wild-type protein (summary of mutations)” value in the assay with cancer cells is given as “effect higher than the wild-type protein”.

`CC[C@H](C)[C@H](NC(=O)[C@H](CCCNC(=N)N)NC(=O)[C@H](C)NC(=O)[C@H](Cc1ccc(O)cc1)NC(=O)[C@H](C)NC(=O)[C@H](CCCCN)NC(=O)[C@H](CCCCN)NC(=O)[C@H](CCCCN)NC(=O)[C@H](Cc1c[nH]c2ccccc12)NC(=O)[C@H](CCCCN)NC(=O)[C@H](CCSC)NC(=O)[C@H](CCCNC(=N)N)NC(=O)[C@H](CCCNC(=N)N)NC(=O)[C@H](CCC(N)=O)NC(=O)[C@H](CCC(N)=O)NC(=O)[C@H](Cc1ccccc1)NC(=O)[C@H](Cc1c[nH]c2ccccc12)NC(=O)[C@@H](NC(=O)[C@H](CCCCN)NC(=O)[C@@H](NC(=O)[C@H](CCC(N)=O)NC(=O)[C@@H](N)CCCNC(=N)N)[C@@H](C)CC)[C@@H](C)CC)C(=O)NCC(=O)N[C@@H](CC(N)=O)C(=O)N[C@@H](CO)C(=O)N[C@@H](Cc1ccc(O)cc1)C(=O)N[C@@H](Cc1ccccc1)C(=O)N[C@@H](CCCCN)C(=O)O` [Antp N9Q-TPR] (H-RQIKIWFQQRRMKWKKKAYARIGNSYFK-OH; N-terminus and C-terminus assumed): in the assay with Caki-1, the “killing effect compared with the wild-type peptide” value is recorded as “stronger than that of the wild-type peptide”, the “Anti-cancer activity (% relative to wild-type peptide)” value is on record as 110.59% and the “Decrease … (% relative to wild-type peptide)” value stood at 881.03%. The “effect compared with the wild-type protein (summary of mutations)” value in the assay with cancer cells is given as “effect higher than the wild-type protein”.

In the case of `CC[C@H](C)[C@H](NC(=O)[C@H](CCCNC(=N)N)NC(=O)[C@H](C)NC(=O)[C@H](Cc1ccc(O)cc1)NC(=O)[C@H](C)NC(=O)[C@H](CCCCN)NC(=O)[C@H](CCCCN)NC(=O)[C@H](CCCCN)NC(=O)[C@H](Cc1c[nH]c2ccccc12)NC(=O)[C@H](CCCCN)NC(=O)[C@H](CCSC)NC(=O)[C@H](CCCNC(=N)N)NC(=O)[C@H](CCCNC(=N)N)NC(=O)[C@H](CC(N)=O)NC(=O)[C@H](CCC(N)=O)NC(=O)[C@H](Cc1ccc(O)cc1)NC(=O)[C@H](Cc1c[nH]c2ccccc12)NC(=O)[C@@H](NC(=O)[C@H](CCCCN)NC(=O)[C@@H](NC(=O)[C@H](CCC(N)=O)NC(=O)[C@@H](N)CCCNC(=N)N)[C@@H](C)CC)[C@@H](C)CC)C(=O)NCC(=O)N[C@@H](CC(N)=O)C(=O)N[C@@H](CO)C(=O)N[C@@H](Cc1ccc(O)cc1)C(=O)N[C@@H](Cc1ccccc1)C(=O)N[C@@H](CCCCN)C(=O)O` [Antp F7Y-TPR] (H-RQIKIWYQNRRMKWKKKAYARIGNSYFK-OH; N-terminus and C-terminus assumed), in the assay on Caki-1, the “Anti-cancer activity (% relative to wild-type peptide)” value stood at 29.86% and the “Decrease … (% relative to wild-type peptide)” value is given as 14.56%. Further, the “effect compared with the wild-type protein (summary of mutations)” value with cancer cells is given as “effective but with an effect lower than the wild-type protein”.

Regarding `CC[C@H](C)[C@H](NC(=O)[C@H](CCCNC(=N)N)NC(=O)[C@H](C)NC(=O)[C@H](Cc1ccc(O)cc1)NC(=O)[C@H](C)NC(=O)[C@H](CCCCN)NC(=O)[C@H](CCCCN)NC(=O)[C@H](CCCCN)NC(=O)[C@H](Cc1c[nH]c2ccccc12)NC(=O)[C@H](CCCCN)NC(=O)[C@H](CCSC)NC(=O)[C@H](CCCNC(=N)N)NC(=O)[C@H](CCCNC(=N)N)NC(=O)[C@H](CC(N)=O)NC(=O)[C@H](CCC(N)=O)NC(=O)[C@H](Cc1ccccc1)NC(=O)[C@H](Cc1c[nH]c2ccccc12)NC(=O)[C@@H](NC(=O)[C@H](CCCCN)NC(=O)[C@H](CC(C)C)NC(=O)[C@H](CCC(N)=O)NC(=O)[C@@H](N)CCCNC(=N)N)[C@@H](C)CC)C(=O)NCC(=O)N[C@@H](CC(N)=O)C(=O)N[C@@H](CO)C(=O)N[C@@H](Cc1ccc(O)cc1)C(=O)N[C@@H](Cc1ccccc1)C(=O)N[C@@H](CCCCN)C(=O)O` [Antp 13L-TPR] (H-RQLKIWFQNRRMKWKKKAYARIGNSYFK-OH; N-terminus and C-terminus assumed), in the assay with Caki-1, the “Anti-cancer activity (% relative to wild-type peptide)” value is 69.12% and the “Decrease … (% relative to wild-type peptide)” value worked out at 27.91%. The “effect compared with the wild-type protein (summary of mutations)” value in the assay with cancer cells is recorded as “effective but with an effect lower than the wild-type protein”.
